Data: patent US20150216171A1, “HERBICIDALLY ACTIVE BICYCLOARYL CARBOXYLIC ACID AMIDES” (BAYER CROPSCIENCE AG, priority 2012, published 2015)

How the values were obtained:
Assay type in all cases: in vivo
wheat [1] = assay: Pre-emergence test, damage to crop plants; conditions: application rate 320 g/ha, scored visually after 3 weeks
Excerpt: (§1) Seeds of monocotyledonous and dicotyledonous weed plants and crop plants are laid out in wood-fiber pots in sandy loam and covered with soil. The inventive compounds, formulated in the form of wettable powders (WP) or as emulsion concentrates (EC), are then applied to the surface of the soil cover in the form of an aqueous suspension or emulsion at a water application rate equating to 600 to 800 l/ha, with addition of 0.2% wetting agent. After the treatment, the pots are placed in a greenhouse and kept under good growth conditions for the test plants. The damage to the trial plants is scored visually after a test period of 3 weeks by comparison with untreated controls (herbicidal activity in percent (%): 100% efficacy=the plants have died, 0% efficacy=like control plants). In this test, for example, compounds no. […] Compounds no. […] Compounds no.

wheat [2] = assay: Post-emergence test, damage to crop plants; conditions: application rate 80 g/ha, scored visually after about 3 weeks
Procedure: (§2) Seeds of monocotyledonous and dicotyledonous weed and crop plants are laid out in sandy loam in wood-fiber pots, covered with soil and cultivated in a greenhouse under good growth conditions. 2 to 3 weeks after sowing, the test plants are treated at the one-leaf stage. The inventive compounds, formulated in the form of wettable powders (WP) or as emulsion concentrates (EC), are then sprayed as aqueous suspension or emulsion at a water application rate equating to 600 to 800 I/ha with the addition of 0.2% of wetting agent onto the green parts of the plants. After the trial plants have been left to stand in a greenhouse under optimal growth conditions for about 3 weeks, the efficacy of the formulations is scored visually in comparison to untreated controls (herbicidal action in percent (%): 100% efficacy=the plants have died, 0% efficacy=like control plants). In this test, for example, compounds no. […] Compounds no. […] Compounds no.

rice = assay: Post-emergence test, damage to crop plants; conditions: application rate 80 g/ha, scored visually after about 3 weeks
Procedure: as §2

corn [3] = assay: Pre-emergence test, damage to crop plants; conditions: application rate 320 g/ha, scored visually after 3 weeks
Excerpt: as §1

corn [4] = assay: Post-emergence test, damage to crop plants; conditions: application rate 80 g/ha, scored visually after about 3 weeks
Procedure: as §2

Structure (SMILES)	damage in wheat (wheat [1])	damage in wheat (wheat [2])	damage in rice (rice)	damage in corn (corn [3])	damage in corn (corn [4])
Cc1c(C(=O)Nc2nnnn2C)ccc2c1S(=O)(=O)C=C2 [7-1]	did not cause any damage at all	–	–	–	–
CC1=Cc2c(ccc(C(=O)Nc3nonc3C)c2Cl)S1(=O)=O [17-19]	did not cause any damage at all	did not cause any damage at all	did not cause any damage at all	did not cause any damage at all	–
CC1=Cc2c(ccc(C(=O)Nc3nnnn3Cc3ccc(Cl)cc3)c2Cl)S1(=O)=O [59-51]	–	did not cause any damage at all	–	–	did not cause any damage at all
CC1=Cc2c(ccc(C(=O)Nc3nonc3-n3cncn3)c2Cl)S1(=O)=O [60-115]	did not cause any damage at all	–	–	did not cause any damage at all	–
Cc1c(C(=O)Nc2nnnn2C)ccc2c1SCC=C2 [61-1]	did not cause any damage at all	did not cause any damage at all	did not cause any damage at all	–	–
Cc1c(C(=O)Nc2nnnn2C)ccc2c1S(=O)(=O)CC=C2 [67-1]	–	did not cause any damage at all	–	–	did not cause any damage at all
